Measurements reported in patent US11452682B2, “Toothpaste composition for alleviating dentin hyperesthesia” (HYSENSBIO, priority 2018, dated 2022).

Test system: DSPP gene
Test: mRNA level of DSPP gene in MDPC-23 cells by RT-PCR and real-time PCR
Assay type: cell-based, mouse
Conditions: cultured 48 hours with peptide, relative ratio to mRNA level in untreated control, Gapdh internal control, repeated three times
Experimental: The MDPC-23 cells cultured in Example 2-1 were treated with the peptides of each group synthesized in Example 1, then cultured for 48 hours. The mRNA level of the DSPP, an odontoblast differentiation marker gene, expressed in the MDPC-23 cells were measured, and the measured mRNA level of each DSPP gene was converted into a relative ratio to the mRNA level of the DSPP gene measured in control (Tables 13 to 24). In addition, the average value of the mRNA level of the DSPP gene measured according to the peptides of each group was compared (FIG. 1B). At this time, as a control, MDPC-23 cells that were not treated with the peptide promoting differentiation of odontoblast were used.
The expression level of the DSPP gene was measured through RT-PCR and real-time PCR analysis: Specifically, total RNA was extracted from the MDPC-23 cells using TRIzol reagent. 2 μg of the total RNA, 1 μl of reverse transcriptase, and 0.5 μg of oligo (oligo; dT) were used to synthesize cDNA. The synthesized cDNA was used in a real-time polymerase chain reaction. The real-time polymerase chain reaction was performed on an ABI PRISM 7500 sequence detection system (Applied Biosystems) and an SYBR GREEN PCR Master Mix (Takara, Japan). The real-time polymerase chain reaction was performed under conditions of 94° C., 1 min; 95° C., 15 sec; 60° C., 34 sec for 40 cycles. Results were analyzed by a comparative cycle threshold (CT) method. At this time, the Gapdh gene was used as the internal control group, and the measured value was repeated three times. The mean value and standard deviation value thereof were used.

Substance	mRNA level of Dspp gene Mean
1 (KYQRRKKNKY; Novel peptide) [compound 1]	1.754
2 (KYQRRKRNKY; Novel peptide) [compound 2]	1.646
4 (KYQRRRRNKY; Novel peptide) [compound 4]	1.855
5 (KYQRKKKNKY; Novel peptide) [compound 5]	1.639
6 (KYQRKRKNKY; Novel peptide) [compound 6]	1.746
7 (KYQRKKRNKY; Novel peptide) [compound 7]	1.864
8 (KYQRKRRNKY; Novel peptide) [compound 8]	1.639
9 (KYQRRKKSKY; Novel peptide) [compound 9]	1.854
10 (KYQRRKRSKY; Novel peptide) [compound 10]	1.746
11 (KYQRRRKSKY; Novel peptide) [compound 11]	1.639
12 (KYQRRRRSKY; Novel peptide) [compound 12]	1.548
13 (KYQRKKKSKY; Novel peptide) [compound 13]	1.685
14 (KYQRKRKSKY; Novel peptide) [compound 14]	1.846
15 (KYQRKKRSKY; Novel peptide) [compound 15]	1.964
16 (KYQRKRRSKY; Novel peptide) [compound 16]	1.739
17 (KYQRRKKNYK; Novel peptide) [compound 17]	2.117
18 (KYQRRKRNYK; Novel peptide) [compound 18]	2.319
19 (KYQRRRKNYK; Novel peptide) [compound 19]	1.931
20 (KYQRRRRNYK; Novel peptide) [compound 20]	2.553
21 (KYQRKKKNYK; Novel peptide) [compound 21]	1.893
22 (KYQRKRKNYK; Novel peptide) [compound 22]	2.412
23 (KYQRKKRNYK; Novel peptide) [compound 23]	2.171

Substance	mRNA level of Dspp gene Mean
24 (KYQRKRRNYK; Novel peptide) [compound 24]	2.212
25 (KYQRRKKSYK; Novel peptide) [compound 25]	2.371
26 (KYQRRKRSYK; Novel peptide) [compound 26]	2.193
27 (KYQRRRKSYK; Novel peptide) [compound 27]	1.993
28 (KYQRRRRSYK; Novel peptide) [compound 28]	2.453
29 (KYQRKKKSYK; Novel peptide) [compound 29]	1.883
30 (KYQRKRKSYK; Novel peptide) [compound 30]	2.512
31 (KYQRKKRSYK; Novel peptide) [compound 31]	2.371
32 (KYQRKRRSYK; Novel peptide) [compound 32]	2.219
33 (KYRQRKKNKY; Novel peptide) [compound 33]	1.712
34 (KYRQRKRNKY; Novel peptide) [compound 34]	1.931
35 (KYRQRRKNKY; Novel peptide) [compound 35]	1.983
36 (KYRQRRRNKY; Novel peptide) [compound 36]	2.319
37 (KYRQKKKNKY; Novel peptide) [compound 37]	1.597
38 (KYRQKRKNKY; Novel peptide) [compound 38]	2.116
39 (KYRQKKRNKY; Novel peptide) [compound 39]	1.712
40 (KYRQKRRNKY; Novel peptide) [compound 40]	2.219
41 (KYRQRKKSKY; Novel peptide) [compound 41]	1.546
42 (KYRQRKRSKY; Novel peptide) [compound 42]	1.586
43 (KYRQRRKSKY; Novel peptide) [compound 43]	1.669
44 (KYRQRRRSKY; Novel peptide) [compound 44]	1.793
45 (KYRQKKKSKY; Novel peptide) [compound 45]	1.532

Substance	mRNA level of Dspp gene Mean
46 (KYRQKRKSKY; Novel peptide) [compound 46]	1.887
47 (KYRQKKRSKY; Novel peptide) [compound 47]	1.697
48 (KYRQKRRSKY; Novel peptide) [compound 48]	1.558
49 (KYRQRKKNYK; Novel peptide) [compound 49]	1.923
50 (KYRQRKRNYK; Novel peptide) [compound 50]	1.887
51 (KYRQRRKNYK; Novel peptide) [compound 51]	1.601
52 (KYRQRRRNYK; Novel peptide) [compound 52]	2.019
53 (KYRQKKKNYK; Novel peptide) [compound 53]	1.592
54 (KYRQKRKNYK; Novel peptide) [compound 54]	1.437
55 (KYRQKKRNYK; Novel peptide) [compound 55]	1.663
56 (KYRQKRRNYK; Novel peptide) [compound 56]	1.701
57 (KYRQRKKSYK; Novel peptide) [compound 57]	2.039
58 (KYRQRKRSYK; Novel peptide) [compound 58]	1.998
59 (KYRQRRKSYK; Novel peptide) [compound 59]	1.792
60 (KYRQRRRSYK; Novel peptide) [compound 60]	2.107
61 (KYRQKKKSYK; Novel peptide) [compound 61]	2.301
62 (KYRQKRKSYK; Novel peptide) [compound 62]	1.672
63 (KYRQKKRSYK; Novel peptide) [compound 63]	1.769
64 (KYRQKRRSYK; Novel peptide) [compound 64]	1.967
65 (KYKQRKKNKY; Novel peptide) [compound 65]	1.723
66 (KYKQRKRNKY; Novel peptide) [compound 66]	1.627
67 (KYKQRRKNKY; Novel peptide) [compound 67]	1.777

Substance	mRNA level of Dspp gene Mean
68 (KYKQRRRNKY; Novel peptide) [compound 68]	1.432
69 (KYKQKKKNKY; Novel peptide) [compound 69]	2.011
70 (KYKQKRKNKY; Novel peptide) [compound 70]	1.927
71 (KYKQKKRNKY; Novel peptide) [compound 71]	1.879
72 (KYKQKRRNKY; Novel peptide) [compound 72]	2.011
73 (KYKQRKKSKY; Novel peptide) [compound 73]	2.035
74 (KYKQRKRSKY; Novel peptide) [compound 74]	2.011
75 (KYKQRRKSKY; Novel peptide) [compound 75]	1.997
76 (KYKQRRRSKY; Novel peptide) [compound 76]	2.351
77 (KYKQKKKSKY; Novel peptide) [compound 77]	1.729
78 (KYKQKRKSKY; Novel peptide) [compound 78]	2.635
79 (KYKQKKRSKY; Novel peptide) [compound 79]	2.231
80 (KYKQKRRSKY; Novel peptide) [compound 80]	1.837
81 (KYKQRKKNYK; Novel peptide) [compound 81]	3.092
82 (KYKQRKRNYK; Novel peptide) [compound 82]	3.361
83 (KYKQRRKNYK; Novel peptide) [compound 83]	3.572
84 (KYKQRRRNYK; Novel peptide) [compound 84]	3.702
85 (KYKQKKKNYK; Novel peptide) [compound 85]	3.67
86 (KYKQKRKNYK; Novel peptide) [compound 86]	3.705
87 (KYKQKKRNYK; Novel peptide) [compound 87]	3.888
88 (KYKQKRRNYK; Novel peptide) [compound 88]	4.021
